Measured values: PMC9977294, “A parasitic fungus employs mutated eIF4A to survive on rocaglate-synthesizing Aglaia plants” (eLife, 2023)
Values joined by “and” are separate entries in the source; they are usually repeats but may differ in a detail not shown here. Equal entries are not always repeated. Where two headings read alike, the source gives them in different places.

Tests used:
Assay in all cases: Fluorescence polarization assay, FAM-labeled [AG]10 RNA and recombinant eIF4A
Assay type in all cases: binding
Settings in all cases: for Kd: [AG]10 10 nM, compound 50 µM, read-out: Kd between eIF4A protein and RNA
[1] = molecular target: Ophiocordyceps sp. BRM1 eIF4A iso4 Gly172His
Method: (§1) The fluorescence polarization assay was performed as previously described ([Chen et al., 2021]). […] After incubation at room temperature for 30 min, the mixture was transferred to a black 384-well microplate (Corning), and the fluorescence polarization was measured by an Infinite F-200 PRO (Tecan). Under ADP + Pi conditions, 1 mM ADP (Fujifilm Wako Chemicals) and 1 mM Na2HPO4 were used as substitutes for AMP-PNP. The data were fitted to the Hill equation to calculate Kd values and visualized by Igor Pro v8.01 (WaveMetrics).

[2] = molecular target: Ophiocordyceps sp. BRM1 eIF4A iso4 Gly172Phe
Method: as §1

[3] = molecular target: Ophiocordyceps sp. BRM1 eIF4A iso4 WT Gly172
Method: as §1

[4] = [AG]10, ADP + Pi, RocA 50 µM, protein 0.01 μM
[5] = [AG]10, ADP + Pi, RocA 50 µM, protein 0.05 μM
[6] = [AG]10, ADP + Pi, RocA 50 µM, protein 0.075 μM
[7] = [AG]10, ADP + Pi, RocA 50 µM, protein 0.1 μM
[8] = [AG]10, ADP + Pi, RocA 50 µM, protein 0.5 μM
[9] = [AG]10, ADP + Pi, RocA 50 µM, protein 0.75 μM
[10] = [AG]10, ADP + Pi, RocA 50 µM, protein 1 μM
[11] = [AG]10, ADP + Pi, RocA 50 µM, protein 5 μM
[12] = [AG]10, ADP + Pi, RocA 50 µM, protein 7.5 μM
[13] = [AG]10, ADP + Pi, RocA 50 µM, protein 10 μM
[14] = [AG]10, ADP + Pi, RocA 50 µM, protein 25 μM
[15] = [AG]10, ADP + Pi, RocA 50 µM, protein 50 μM
[16] = [AG]10 RNA, AMP-PNP, RocA, protein concentration 0.01 μM
[17] = [AG]10 RNA, AMP-PNP, RocA, protein concentration 0.05 μM
[18] = [AG]10 RNA, AMP-PNP, RocA, protein concentration 0.075 μM
[19] = [AG]10 RNA, AMP-PNP, RocA, protein concentration 0.1 μM
[20] = [AG]10 RNA, AMP-PNP, RocA, protein concentration 0.5 μM
[21] = [AG]10 RNA, AMP-PNP, RocA, protein concentration 0.75 μM
[22] = [AG]10 RNA, AMP-PNP, RocA, protein concentration 1 μM
[23] = [AG]10 RNA, AMP-PNP, RocA, protein concentration 5 μM
[24] = [AG]10 RNA, AMP-PNP, RocA, protein concentration 7.5 μM
[25] = [AG]10 RNA, AMP-PNP, RocA, protein concentration 10 μM
[26] = [AG]10 RNA, AMP-PNP, RocA, protein concentration 25 μM
[27] = [AG]10 RNA, AMP-PNP, RocA, protein concentration 50 μM

COc1ccc([C@@]23Oc4cc(OC)cc(OC)c4[C@]2(O)[C@H](O)[C@H](C(=O)N(C)C)[C@H]3c2ccccc2)cc1 [RocA, rocaglamide A]
Kd ([1]; ADP + Pi (1 mM each)): 3900 ± 980 nM
Kd ([1]; AMP-PNP 1 mM): 51 ± 9.1 nM
fluorescence polarization, Mean [1, 4]: -0.1448
fluorescence polarization, replicates [1, 4]: -0.04098 and -0.2377
fluorescence polarization, Mean [1, 5]: -0.08743
fluorescence polarization, replicates [1, 5]: -0.08197 and -0.02459
fluorescence polarization, Mean [1, 6]: -0.06284
fluorescence polarization, replicates [1, 6]: -0.05738 and -0.123 and -0.008197
fluorescence polarization, Mean [1, 7]: -0.07923
fluorescence polarization, replicates [1, 7]: -0.05738 and -0.08197 and -0.09836
fluorescence polarization, Mean [1, 8]: 0.265
fluorescence polarization, replicates [1, 8]: 0.2459 and 0.2541 and 0.2951
fluorescence polarization, Mean [1, 9]: 0.2814
fluorescence polarization, replicates [1, 9]: 0.3197 and 0.3443 and 0.1803
fluorescence polarization, Mean [1, 10]: 0.4809
fluorescence polarization, replicates [1, 10]: 0.4754 and 0.5 and 0.4672
fluorescence polarization, replicates [1, 11]: 0.459 and 0.6639
fluorescence polarization, Mean [1, 12]: 0.7978
fluorescence polarization, replicates [1, 13]: 0.5246 and 0.5902 and 0.582
fluorescence polarization, Mean [1, 14]: 0.8743
fluorescence polarization, replicates [1, 14]: 0.8197 and 0.877 and 0.9262
fluorescence polarization, Mean [1, 15]: 1.003
fluorescence polarization, replicates [1, 15]: 1.033 and 1.0082
Fluorescence polarization, Replicate 1-3 [1, 16]: 0.06831 and 0.1421 and 0.06011
fluorescence polarization, Mean [1, 16]: 0.09016
Fluorescence polarization, Replicate 1-3 [1, 17]: 0.5929 and 0.5109 and 0.4781
fluorescence polarization, Mean [1, 17]: 0.5273
Fluorescence polarization, Replicate 1-3 [1, 18]: 0.5519 and 0.5601 (2×)
fluorescence polarization, Mean [1, 18]: 0.5574
Fluorescence polarization, Replicate 1-3 [1, 19]: 0.6093 and 0.6749 and 0.5519
fluorescence polarization, Mean [1, 19]: 0.612
Fluorescence polarization, Replicate 1-3 [1, 20]: 0.8716 (2×) and 0.806
fluorescence polarization, Mean [1, 20]: 0.8497
Fluorescence polarization, Replicate 1-3 [1, 21]: 0.8798 and 0.8634 and 0.9126
fluorescence polarization, Mean [1, 21]: 0.8852
Fluorescence polarization, Replicate 1-3 [1, 22]: 0.9536 and 0.9372 and 0.8716
fluorescence polarization, Mean [1, 22]: 0.9208
Fluorescence polarization, Replicate 1-3 [1, 23]: 0.9372 (2×) and 0.9044
fluorescence polarization, Mean [1, 23]: 0.9262
Fluorescence polarization, Replicate 1-3 [1, 24]: 0.8716 and 0.9126 and 0.9044
fluorescence polarization, Mean [1, 24]: 0.8962
Fluorescence polarization, Replicate 1-3 [1, 25]: 0.9536 and 0.929 and 0.8552
fluorescence polarization, Mean [1, 25]: 0.9126
Fluorescence polarization, Replicate 1-3 [1, 26]: 0.9372 and 1.027 and 0.9536
fluorescence polarization, Mean [1, 26]: 0.9727
Fluorescence polarization, Replicate 1-3 [1, 27]: 1.044 (2×) and 1.027
fluorescence polarization, Mean [1, 27]: 1.038
Kd ([2]; ADP + Pi (1 mM each)): 270 ± 50 nM
Kd ([2]; AMP-PNP 1 mM): 53 ± 23 nM
fluorescence polarization, Mean [2, 4]: -0.0929
fluorescence polarization, replicates [2, 4]: -0.1366
fluorescence polarization, Mean [2, 5]: -0.112
fluorescence polarization, replicates [2, 5]: -0.1366
fluorescence polarization, Mean [2, 6]: -0.05465
fluorescence polarization, replicates [2, 6]: -0.005465
fluorescence polarization, Mean [2, 7]: 0.05191
fluorescence polarization, replicates [2, 7]: 0.0929 and 0.002732
fluorescence polarization, Mean [2, 8]: 0.3142
fluorescence polarization, replicates [2, 8]: 0.3142 and 0.2486
fluorescence polarization, Mean [2, 9]: 0.3661
fluorescence polarization, replicates [2, 9]: 0.429 and 0.306
fluorescence polarization, Mean [2, 10]: 0.4044
fluorescence polarization, replicates [2, 10]: 0.3552 and 0.429 (2×)
fluorescence polarization, Mean [2, 11]: 0.4399
fluorescence polarization, replicates [2, 11]: 0.4781 and 0.4208 (2×)
fluorescence polarization, Mean [2, 12]: 0.5328
fluorescence polarization, replicates [2, 12]: 0.5519 and 0.5027
fluorescence polarization, Mean [2, 13]: 0.5055
fluorescence polarization, replicates [2, 13]: 0.4372 and 0.5109 and 0.5683
fluorescence polarization, Mean [2, 14]: 0.5301
fluorescence polarization, replicates [2, 14]: 0.4863
fluorescence polarization, Mean [2, 15]: 0.5273
fluorescence polarization, replicates [2, 15]: 0.5765 and 0.5519 and 0.4536
Fluorescence polarization, Replicate 1-3 [2, 16]: 0.3525 and 0.2213 and 0.04098
fluorescence polarization, Mean [2, 16]: 0.2049
Fluorescence polarization, Replicate 1-3 [2, 17]: 0.3852 and 0.2951 and 0.2787
fluorescence polarization, Mean [2, 17]: 0.3197
Fluorescence polarization, Replicate 1-3 [2, 18]: 0.3197 and 0.3607 and 0.3361
fluorescence polarization, Mean [2, 18]: 0.3388
Fluorescence polarization, Replicate 1-3 [2, 20]: 0.8689 and 0.8197
Fluorescence polarization, Replicate 1-3 [2, 21]: 0.8115 and 0.7295
fluorescence polarization, Mean [2, 21]: 0.7514
Fluorescence polarization, Replicate 1-3 [2, 22]: 0.8279 and 0.8934
Fluorescence polarization, Replicate 1-3 [2, 23]: 0.8197 and 0.877
fluorescence polarization, Mean [2, 23]: 0.8661
Fluorescence polarization, Replicate 1-3 [2, 24]: 0.9262 and 0.8361 and 0.8525
fluorescence polarization, Mean [2, 24]: 0.8716
Fluorescence polarization, Replicate 1-3 [2, 25]: 0.8689 and 0.8525 and 0.8033
fluorescence polarization, Mean [2, 25]: 0.8415
Fluorescence polarization, Replicate 1-3 [2, 26]: 0.8607 and 0.9262 and 0.877
fluorescence polarization, Mean [2, 26]: 0.888
Fluorescence polarization, Replicate 1-3 [2, 27]: 0.9344 and 0.9672 and 0.9098
fluorescence polarization, Mean [2, 27]: 0.9372
Kd ([3]; ADP + Pi (1 mM each)): ~17000 nM and 17000 nM
Kd ([3]; AMP-PNP 1 mM): 230 ± 50 nM
fluorescence polarization, Mean [3, 4]: -0.01093
fluorescence polarization, replicates [3, 4]: 0.0929
fluorescence polarization, Mean [3, 5]: -0.1393
fluorescence polarization, replicates [3, 5]: -0.2186
fluorescence polarization, Mean [3, 6]: -0.09563
fluorescence polarization, replicates [3, 6]: -0.03825 and -0.2268
fluorescence polarization, Mean [3, 7]: -0.08743
fluorescence polarization, replicates [3, 7]: -0.09563
fluorescence polarization, Mean [3, 8]: -0.2951
fluorescence polarization, replicates [3, 8]: -0.2432 and -0.2923 and -0.3497
fluorescence polarization, Mean [3, 9]: -0.347
fluorescence polarization, replicates [3, 9]: -0.3169 and -0.3661 and -0.3579
fluorescence polarization, Mean [3, 10]: -0.2568
fluorescence polarization, replicates [3, 10]: -0.1858 and -0.2104 and -0.3743
fluorescence polarization, Mean [3, 11]: -0.112
fluorescence polarization, replicates [3, 11]: -0.1448 and -0.1612
fluorescence polarization, Mean [3, 12]: -0.1202
fluorescence polarization, replicates [3, 12]: -0.08743
fluorescence polarization, Mean [3, 13]: 0.002732
fluorescence polarization, replicates [3, 13]: -0.005465
fluorescence polarization, Mean [3, 14]: 0.2951
fluorescence polarization, replicates [3, 14]: 0.265
fluorescence polarization, Mean [3, 15]: 0.4044
fluorescence polarization, replicates [3, 15]: 0.4208 and 0.429
Fluorescence polarization, Replicate 1-3 [3, 16]: -0.2186 and -0.2022 and -0.2268
fluorescence polarization, Mean [3, 16]: -0.2158
Fluorescence polarization, Replicate 1-3 [3, 17]: 0.2732 and -0.005465 and -0.2268
fluorescence polarization, Mean [3, 17]: 0.01366
Fluorescence polarization, Replicate 1-3 [3, 18]: -0.112 and -0.04645 and -0.2104
fluorescence polarization, Mean [3, 18]: -0.123
Fluorescence polarization, Replicate 1-3 [3, 19]: 0.3224 and -0.194 and -0.1612
fluorescence polarization, Mean [3, 19]: -0.01093
Fluorescence polarization, Replicate 1-3 [3, 20]: 0.2896
fluorescence polarization, Mean [3, 20]: 0.2896
Fluorescence polarization, Replicate 1-3 [3, 21]: 0.4699 and 0.2732 and 0.1585
fluorescence polarization, Mean [3, 21]: 0.3005
Fluorescence polarization, Replicate 1-3 [3, 22]: 0.4617 and 0.347 and 0.3306
fluorescence polarization, Mean [3, 22]: 0.3798
Fluorescence polarization, Replicate 1-3 [3, 23]: 0.5683 and 0.3962 and 0.429
fluorescence polarization, Mean [3, 23]: 0.4645
Fluorescence polarization, Replicate 1-3 [3, 24]: 0.5765 and 0.4372 and 0.4044
fluorescence polarization, Mean [3, 24]: 0.4727
Fluorescence polarization, Replicate 1-3 [3, 25]: 0.4372 and 0.3962 and 0.3224
fluorescence polarization, Mean [3, 25]: 0.3852
Fluorescence polarization, Replicate 1-3 [3, 26]: 0.6585 and 0.4372 and 0.4617
fluorescence polarization, Mean [3, 26]: 0.5191
Fluorescence polarization, Replicate 1-3 [3, 27]: 0.5929 and 0.4863 and 0.4699
fluorescence polarization, Mean [3, 27]: 0.5164
